# Data as given in patent US20250346601A1, “HETEROCYCLIC COMPOUNDS FOR THE PREVENTION AND THERAPY OF CIRCADIAN RHYTHM DISORDERS” (UNIVERZITA PALACKEHO V OLOMOUCI, priority 2022, published 2025).
# “And” between values parts separate entries of the source, which are not always exact repeats. Equal entries are not always repeated.
# Key:
# [1] = tested on: U2OS line transduced with the Bmal 1-Luc reporter; assay: Period of the circadian rhythm in U2OS cells with Bmal1-Luc reporter (luminescence, cosinor analysis); assay type: cell-based, Human; conditions: U2OS, DMSO control = 1.00
# Protocol: Human osteosarcoma U2OS cells were grown in standard DMEM medium with 10% fetal bovine serum. U2OS cells were transduced with lentiviral particles containing a Bmall-Luc fusion reporter and selected under Blasticidin. The cell line was clonally expanded and a single monoclonal cell line was used for further experiments. Cells were cultured in a 384-well plate in growth medium to 90+% confluence. Test compound or vehicle (DMSO) was applied to recording medium with 100 U/ml penicillin, 100 ug/ml streptomycin, 1x GlutaMAX, 10% fetal bovine serum, and 0.1 mM Luciferin-EF. Luminescence was recorded every hour for the next 144 hours. Circadian rhythm analysis was performed using cosinor analysis.
# The length of the period was expressed relative to the period of cells affected only by DMSO vehicle (their period is therefore 1.00). […] The overall effect on circadian oscillations unequivocally proves that the compounds of formula I can be also used to temporally modulate the concentration and activity of not only BMAL1, but also other components of the oscillator including the critical components PER2, CRY and CLOCK in time, as these are an essential part of the mechanism generating the rhythmic expression of the luminescent reporter used. The concentration and level of other proteins, whose rhythmic expression is controlled by an oscillator in the brain and peripheral tissues (so-called clock-controlled genes), are also necessarily affected. The influence of the compounds of formula I on the activity of oscillator components and subordinate genes also means influencing the physiological processes of the cell controlled by these genes and proteins. N^6-furfuryladenine was used as a reference compound. […] The ability to shift the phase of the circadian cycle can be seen in FIG. 2.
# [2] = tested on: NIH3T3 line transfected with the Per2-Luc reporter; assay: Period of the circadian rhythm in NIH3T3 fibroblasts with Per2-Luc reporter (luminescence, cosinor analysis); assay type: cell-based, mouse; conditions: NIH3T3, DMSO control = 1.00
# Protocol: NIH3T3 mouse embryonic fibroblasts were grown in standard DMEM with 10% fetal bovine serum. NIH3T3 cells were transfected with 1 μg of Per2-Luc reporter using GeneJuice and selected under hygromycin. The cell line was clonally expanded and a single monoclonal cell line was used for further experiments. Cells were cultured in a 96-well plate in growth medium to 90+% confluence. Test compound or vehicle (DMSO) was applied to recording medium with 100 U/ml penicillin, 100 μg/ml streptomycin, 1x GlutaMAX, 10% fetal calf serum and 0.1 mM Luciferin-EF (Promega Madison, WI, USA). Luminescence was recorded every hour for the next 144 hours. Circadian rhythm analysis was performed using cosinor analysis. Period length was expressed relative to the period of cells affected only by DMSO vehicle (their period length is therefore 1.00).
structure (smiles),measurement,setting,value
"Clc1nc(NCc2ccco2)c2[nH]cnc2n1 [2-chloro-N^6-furfuryladenine, reference compound]",Period length ± standard error of the mean (expressed relative to control) at the indicated concentration,[1]; 20 μM,20 μM: 1.00 ± 0.03
"CCOCCn1cnc2c(NCc3ccco3)ncnc21 [9-(2-ethoxyethyl)-N-(furan-2-ylmethyl)-9H-purin-6-amine, reference compound]",Period length ± standard error of the mean (expressed relative to the control) at the indicated concentration,[2]; 50 μM,50 μM: 0.97 ± 0.03
same,Period length ± standard error of the mean (expressed relative to control) at the indicated concentration,[1]; 50 μM,50 μM: 0.99 ± 0.01
"Nc1ncnc2c1ncn2C1CCCO1 (stereo not shown) [9-(tetrahydrofuran-2-yl)-9H-purin-6-amine, reference compound]",Period length ± standard error of the mean (expressed relative to control) at the indicated concentration,[1]; 20 μM,20 μM: 0.98 ± 0.02
c1coc(CNc2ncnc3c2ncn3C2CCCO2)c1 (stereo not shown) [Compound 2],Period length ± standard error of the mean (expressed relative to control) at the indicated concentration,[1]; 10 μM,10 μM: 1.05 ± 0.01
"c1coc(CNc2ncnc3c2ncn3C2CCOC2)c1 (stereo not shown) [Compound 3, N-(furan-2-ylmethyl)-9-(tetrahydrofuran-3-yl)-9H-purin-6-amine]",Period length ± standard error of the mean (expressed relative to control) at the indicated concentration,[1]; 10 μM,10 μM: 1.06 ± 0.01
c1coc(CNc2ncnc3c2ncn3C2CCOCC2)c1 [Compound 5],Period length ± standard error of the mean (expressed relative to control) at the indicated concentration,[1]; 10 μM,10 μM: 1.05 ± 0.01
Clc1nc(NCc2ccco2)c2ncn(C3CCCO3)c2n1 (stereo not shown) [Compound 7],Period length ± standard error of the mean (expressed relative to control) at the indicated concentration,[1]; 10 μM,10 μM: 1.13 ± 0.02
Clc1nc(NCc2ccco2)c2ncn(C3CCOC3)c2n1 (stereo not shown) [Compound 8],Period length ± standard error of the mean (expressed relative to control) at the indicated concentration,[1]; 10 μM,1.04 ± 0.01
same,Period length ± standard error of the mean (expressed relative to control) at the indicated concentration,[1]; 20 μM,1.22 ± 0
Clc1nc(NCc2ccco2)c2ncn(C3CCCCO3)c2n1 (stereo not shown) [Compound 9],Period length ± standard error of the mean (expressed relative to control) at the indicated concentration,[1]; 10 μM,1.09 ± 0.01
same,Period length ± standard error of the mean (expressed relative to control) at the indicated concentration,[1]; 20 μM,1.11 ± 0.01
Cc1ccc(CNc2nc(Cl)nc3c2ncn3C2CCCO2)o1 (stereo not shown) [Compound 12],Period length ± standard error of the mean (expressed relative to control) at the indicated concentration,[1]; 10 μM,10 μM: 1.16 + 0.01
"Cc1ccc(CNc2nc(Cl)nc3c2ncn3C2CCCCO2)o1 (stereo not shown) [Compound 13, 2-chloro-N-[(5-methylfuran-2-yl)methyl]-9-(tetrahydro-2H-pyran-2-yl)-9H-purin-6-amine]",Period length ± standard error of the mean (expressed relative to the control) at the indicated concentration,[2]; 10 μM,10 μM: 1.19 ± 0.01
OCCNc1nc(NCc2ccco2)c2ncn(C3CCCC3)c2n1 [Compound 19],Period length ± standard error of the mean (expressed relative to control) at the indicated concentration,[1]; 1 μM,1.07 ± 0.01
same,Period length ± standard error of the mean (expressed relative to control) at the indicated concentration,[1]; 4 μM,1.21 ± 0.01
CC(C)Oc1nc(NCc2ccco2)c2ncn(C3CCCC3)c2n1 [Compound 21],Period length ± standard error of the mean (expressed relative to control) at the indicated concentration,[1]; 20 μM,20 μM: 1.26 ± 0.06
CNc1nc(NCc2ccco2)c2ncn(C3CCOC3)c2n1 (stereo not shown) [Compound 25],Period length ± standard error of the mean (expressed relative to control) at the indicated concentration,[1]; 20 μM,20 μM: 1.06 ± 0.01
CN(CCN)c1nc(NCc2ccco2)c2ncn(C3CCOC3)c2n1 (stereo not shown) [Compound 27],Period length ± standard error of the mean (expressed relative to control) at the indicated concentration,[1]; 20 μM,20 μM: 1.25 ± 0.01
CN(C)CCNc1nc(NCc2ccco2)c2ncn(C3CCOC3)c2n1 (stereo not shown) [Compound 28],Period length ± standard error of the mean (expressed relative to control) at the indicated concentration,[1]; 20 μM,20 μM: 1.16 ± 0
NCCNc1nc(NCc2ccco2)c2ncn(C3CCOC3)c2n1 (stereo not shown) [Compound 29],Period length ± standard error of the mean (expressed relative to control) at the indicated concentration,[1]; 20 μM,20 μM: 1.09 ± 0
OCCNc1nc(NCc2ccco2)c2ncn(C3CCOC3)c2n1 (stereo not shown) [Compound 30],Period length ± standard error of the mean (expressed relative to control) at the indicated concentration,[1]; 20 μM,20 μM: 1.05 ± 0
c1coc(CNc2nc(N3CCOCC3)nc3c2ncn3C2CCOC2)c1 (stereo not shown) [Compound 31],Period length ± standard error of the mean (expressed relative to control) at the indicated concentration,[1]; 20 μM,20 μM: 1.13 ± 0.01
CC(C)Oc1nc(NCc2ccco2)c2ncn(C3CCOC3)c2n1 (stereo not shown) [Compound 32],Period length ± standard error of the mean (expressed relative to control) at the indicated concentration,[1]; 20 μM,20 μM: 1.09 ± 0
c1coc(CNc2nc(NC3CCCC3)nc3c2ncn3C2CCCCO2)c1 (stereo not shown) [Compound 39],Period length ± standard error of the mean (expressed relative to control) at the indicated concentration,[1]; 20 μM,20 μM: 1.05 ± 0.01
c1coc(CNc2nc(N3CCCC3)nc3c2ncn3C2CCCCO2)c1 (stereo not shown) [Compound 40],Period length ± standard error of the mean (expressed relative to control) at the indicated concentration,[1]; 10 μM,10 μM: 1.04 ± 0
NCCNc1nc(NCc2ccco2)c2ncn(C3CCCCO3)c2n1 (stereo not shown) [Compound 41],Period length ± standard error of the mean (expressed relative to control) at the indicated concentration,[1]; 1 μM,1.03 ± 0.01
same,Period length ± standard error of the mean (expressed relative to control) at the indicated concentration,[1]; 5 μM,1.07 ± 0
same,Period length ± standard error of the mean (expressed relative to control) at the indicated concentration,[1]; 20 μM,1.32 ± 0.01
CN(CCN)c1nc(NCc2ccco2)c2ncn(C3CCCCO3)c2n1 (stereo not shown) [Compound 43],Period length ± standard error of the mean (expressed relative to control) at the indicated concentration,[1]; 1 μM,1 μM: 1.08 ± 0.01
c1coc(CNc2nc(N3CCOCC3)nc3c2ncn3C2CCCCO2)c1 (stereo not shown) [Compound 47],Period length ± standard error of the mean (expressed relative to control) at the indicated concentration,[1]; 5 μM,1.08 ± 0.01
same,Period length ± standard error of the mean (expressed relative to control) at the indicated concentration,[1]; 20 μM,1.47 ± 0.03
"CC(C)Oc1nc(NCc2ccco2)c2ncn(C3CCCCO3)c2n1 (stereo not shown) [Compound 49, N-(furan-2-ylmethyl)-2-isopropoxy-9-(tetrahydro-2H-pyran-2-yl)-9H-purin-6-amine]",Period length ± standard error of the mean (expressed relative to control) at the indicated concentration,[1]; 20 μM,20 μM: 1.14 ± 0.01
Cc1ccc(CNc2nc(N(C)C)nc3c2ncn3C2CCCCO2)o1 (stereo not shown) [Compound 51],Period length ± standard error of the mean (expressed relative to the control) at the indicated concentration,[2]; 0.83 μM,1.05 ± 0.02
same,Period length ± standard error of the mean (expressed relative to the control) at the indicated concentration,[2]; 10 μM,1.08
same,Period length ± standard error of the mean (expressed relative to the control) at the indicated concentration,[2]; 50 μM,0.02; 50 μM: 1.74 ± 0.2
CNc1nc(NCc2ccco2)c2ncn(C3CCOCC3)c2n1 [Compound 52],Period length ± standard error of the mean (expressed relative to control) at the indicated concentration,[1]; 20 μM,20 μM: 1.08 ± 0.01
CN(C)c1nc(NCc2ccco2)c2ncn(C3CCOCC3)c2n1 [Compound 53],Period length ± standard error of the mean (expressed relative to control) at the indicated concentration,[1]; 20 μM,20 μM: 1.22 ± 0.01
CN(CCN)c1nc(NCc2ccco2)c2ncn(C3CCOCC3)c2n1 [Compound 54],Period length ± standard error of the mean (expressed relative to control) at the indicated concentration,[1]; 5 μM,5 μM: 1.14 ± 0.02
"CN(C)CCNc1nc(NCc2ccco2)c2ncn(C3CCOCC3)c2n1 [Compound 55, N^2-(2-(dimethylamino)ethyl)-N^6-(furan-2-ylmethyl)-9-(tetrahydro-2H-pyran-4-yl)-9H-purine-2,6-diamine]",Period length ± standard error of the mean (expressed relative to control) at the indicated concentration,[1]; 4 μM,4 μM: 1.16 ± 0.01
OCCNc1nc(NCc2ccco2)c2ncn(C3CCOCC3)c2n1 [Compound 57],Period length ± standard error of the mean (expressed relative to control) at the indicated concentration,[1]; 20 μM,20 μM: 1.16 ± 0.01
c1coc(CNc2nc(N3CCOCC3)nc3c2ncn3C2CCOCC2)c1 [Compound 58],Period length ± standard error of the mean (expressed relative to control) at the indicated concentration,[1]; 20 μM,20 μM: 1.42 ± 0.04
CC(C)Oc1nc(NCc2ccco2)c2ncn(C3CCOCC3)c2n1 [Compound 59],Period length ± standard error of the mean (expressed relative to control) at the indicated concentration,[1]; 20 μM,1.2 ± 0.01 and 1.11 ± 0.02
CN(C)c1nc(NCc2ccco2)c2ncn(C3CCCCCO3)c2n1 (stereo not shown) [Compound 61],Period length ± standard error of the mean (expressed relative to control) at the indicated concentration,[1]; 10 μM,1.04 ± 0.01
same,Period length ± standard error of the mean (expressed relative to control) at the indicated concentration,[1]; 20 μM,1.15 ± 0.02
"Cc1ccc(CNc2ncnc3nc[nH]c23)o1 [N^6-(5-methylfurfuryl)adenine, reference compound]",Period length ± standard error of the mean (expressed relative to control) at the indicated concentration,[1]; 50 μM,50 μM: 1.01 ± 0.02
